The text below walks through data of PMC4268243 (Nuclear medicine and biology, 2014).

“Also recorded” adds a separate entry of the source. Where only a bound is given, the exact number is not on record here.

The subject of one data set is DU145 tumor xenograft. The data set can be described thus: Biodistribution in DU145 tumor-bearing SCID mice. Format: in vivo. As to conditions: listed as (R)-[^18F]MeFAMP 2.
Data set [1] has as its system DU145 androgen-independent prostate carcinoma cells. Put plainly: Amino acid uptake and inhibition in DU145 cells. As to conditions: DU145, 30 minutes incubation. Type of data set: cell-based, human.
The subject of data set [2] is SCID mice xenograft tumor models. Format: in vivo. The note with it: in most cases, over tumors and time points.
The next data set relates to U87 glioblastoma cells. The data set can be described thus: Amino acid uptake and inhibition in U87 cells. Type of data set: cell-based, human. The note with it: U87, 30 minutes incubation.
Data set [3] has as its system SKOV3 estrogen-positive ovarian adenocarcinoma cells. Put plainly: Amino acid uptake and inhibition in SKOV3 cells. Format: cell-based, human. The note with it: SKOV3, 30 minutes incubation.
In data set [4] the test system is A549 lung adenocarcinoma cells. The data set can be described thus: Amino acid uptake and inhibition in A549 cells. Type of data set: cell-based, human. As to conditions: A549, 30 minutes incubation.
The next data set concerns U87 tumor xenograft. Put plainly: Biodistribution in U87 tumor-bearing SCID mice. Format: in vivo. As to conditions: listed as (R)-[^18F]MeFAMP 2.
Data set [5] relates to human A549, DU145, U87, MDA MB468 and SKOV3 tumor cells. Put plainly: Amino acid uptake and inhibition, summary over the five tumor cell lines. Type of data set: cell-based.
In a further data set the test system is SKOV3 tumor xenograft. Put plainly: Biodistribution in SKOV3 tumor-bearing SCID mice. Format: in vivo. The note with it: listed as (R)-[^18F]MeFAMP 2.
Data set [6] deals with MDA MB468 estrogen-independent breast carcinoma cells. Put plainly: Amino acid uptake and inhibition in MDA MB468 cells. As to conditions: MDA MB468, 30 minutes incubation. Format: cell-based, human.
Data set [7] relates to MDA MB468 tumor xenograft. The data set can be described thus: Biodistribution in MDA MB468 tumor-bearing SCID mice. Type of data set: in vivo. The note with it: listed as (R)-[^18F]MeFAMP 2.
A further data set relates to A549 tumor xenograft. The data set can be described thus: Biodistribution in A549 tumor-bearing SCID mice. As to conditions: listed as (R)-[^18F]MeFAMP 2. Type of data set: in vivo.
Data set [8] relates to rat orthotopic brain tumor model. As to conditions: rat model; cited from earlier work.
The nature of data set [9]: Brain uptake of [18F]FET in nude mice. Format: in vivo.

For `CN[C@@](C)(C[18F])C(=O)O` [(R)-[^18F]2] [3-[^18F]fluoro-2-methyl-2-N-(methylamino)propanoic acid], the uptake in liver with DU145 tumor xenograft (15 min post injection) is 7.8±1.2 %ID/g; with U87 tumor xenograft (60 min post injection), 6.8±1.3 %ID/g; in the data set on A549 tumor xenograft (30 min post injection) it was 7.5±1.5 %ID/g; with A549 tumor xenograft (60 min post injection), 5.2±0.3 %ID/g. Moreover, the uptake in tumor in the data set with DU145 tumor xenograft (15 min post injection) came to 5.2±1.2 %ID/g; in the data set on U87 tumor xenograft (30 min post injection), 5.9±1.1 %ID/g; in the data set with U87 tumor xenograft (60 min post injection) it was 5.8±0.8 %ID/g; in the data set on SKOV3 tumor xenograft (60 min post injection) it was 7.5±1.8 %ID/g; with A549 tumor xenograft (15 min post injection), 5.3±1.9 %ID/g; in the data set on A549 tumor xenograft (30 min post injection), 6.3±1.3 %ID/g. Besides, the uptake in pancreas is on record as 53±17 %ID/g in the data set with DU145 tumor xenograft (30 min post injection), 74±11 %ID/g in the data set on U87 tumor xenograft (15 min post injection) and 59±3.3 %ID/g in data set [7] (15 min post injection). The uptake in spleen is recorded as 7.4±1.6 %ID/g in the data set with DU145 tumor xenograft (120 min post injection); 6.1±0.5 %ID/g in the data set with U87 tumor xenograft (120 min post injection); 6.8±0.6 %ID/g in the data set with SKOV3 tumor xenograft (120 min post injection); 6.6±0.8 %ID/g in data set [7] (120 min post injection); 9.8±1.3 %ID/g in the data set with A549 tumor xenograft (30 min post injection). In addition, the Cell uptake in data set [1] (10 mM BCH) amounted to 1.9±0.1 % ID/5×10^5 cells; in data set [1] (10 mM MeAIB) it was 0.4±0.1 % ID/5×10^5 cells; in data set [1] (Control (no inhibitor)), 1.5±0.2 % ID/5×10^5 cells; in the data set on U87 glioblastoma cells (10 mM BCH), 3.5±0.2 % ID/5×10^5 cells; with U87 glioblastoma cells (10 mM MeAIB), 0.6±0.1 % ID/5×10^5 cells; in the data set on U87 glioblastoma cells (Control (no inhibitor)) it was 2.7±0.3 % ID/5×10^5 cells. Also, the Cell uptake in data set [3] (10 mM BCH) is 4.5±0.7 % ID/5×10^5 cells; in data set [3] (10 mM MeAIB), 0.5±0.2 % ID/5×10^5 cells; in [3] (Control (no inhibitor)), 3.9±0.6 % ID/5×10^5 cells; in data set [4] (10 mM BCH), 3.1±0.1 % ID/5×10^5 cells; in [4] (10 mM MeAIB) it was 0.4±0.04 % ID/5×10^5 cells; in data set [4] (Control (no inhibitor)), 2.4±0.2 % ID/5×10^5 cells. Moreover, the Cell uptake turned out to be 1.5±0.2 % ID/5×10^5 cells in [6] (10 mM BCH), 0.5±0.2 % ID/5×10^5 cells in [6] (10 mM MeAIB) and 1.4±0.1 % ID/5×10^5 cells in [6] (Control (no inhibitor)). The “ratio of tumor to muscle” value in [2] was above 4. Further, the uptake in kidney in the data set on U87 tumor xenograft (60 min post injection) is 6.8±1.3 %ID/g; in data set [7] (60 min post injection) it was 5.9±0.8 %ID/g. Further, in [5] (10 mM BCH, relative to control, most cell lines), the “inhibition of uptake by BCH” value is recorded as “no BCH inhibition was observed in most cases”. Also, the “inhibition of uptake by MeAIB” value in data set [5] (10 mM MeAIB, relative to control, most cell lines) is 50-91%. The “uptake in tumor cells” value in data set [5] (30 minutes incubation, without inhibitors, range over the cell lines) is on record as 1-7 %ID/5×10^5 cells. For the same molecule, the “amino acid transport system mediating uptake / selectivity” value in data set [5] (AAT cell inhibition assays with MeAIB and BCH) is listed as “high selectivity for system A AAT; also recorded: the most selective for system A transport”.
Take `NC1(C(=O)O)CC([18F])C1` (stereo not shown) [[^18F]FACBC, [18F]1-amino-3-fluorocyclobutane-1-carboxylic acid, reference compound]: the brain uptake in [8] is 0.26±0.03 %ID/g.
Consider `N[C@@H](Cc1ccc(OCC[18F])cc1)C(=O)O` [[^18F]FET, O-(2-[^18F]fluoroethyl)-L-tyrosine], for which, in [9] ([18F]FET in nude mice vs [18F]1 in SCID mice), the “fold higher brain uptake than [18F]1” value is listed as 2.5-3.5 fold. The “fold higher brain uptake than [18F]2” value in [9] ([18F]FET in nude mice vs [18F]2 in SCID mice) is 7-14 fold.
